#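 Test compounds were applied to cells in 96-well plates for 48 hours at 5 doses. GI50: concentration for 50% inhibition of growth.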 Active and inactive are the calls of the source. No stated cut-off is given here; in the data, active = GI50 up to about 1.1 µM and inactive = higher.
# Columns and labels:
# Test in all cases: NCI anticancer screen, dose series, 48 h
# SNB-19 = tested on: SNB-19
# K562 = tested on: K562
# ACHN = tested on: ACHN
# IGROV-1 = tested on: IGROV-1
# NCI-H226 = tested on: NCI-H226
# NCI-H23 = tested on: NCI-H23
# SK-MEL-28 = tested on: SK-MEL-28
# MOLT-4 = tested on: MOLT-4
# SNB-75 = tested on: SNB-75
# SF-268 = tested on: SF-268
# 786-0 = tested on: 786-0
# HCC 2998 = tested on: HCC 2998
# UO-31 = tested on: UO-31
# SF-295 = tested on: SF-295
# HOP-92 = tested on: HOP-92
# EKVX = tested on: EKVX
# HL-60 = tested on: HL-60
# A549 = tested on: A549
# HCT-116 = tested on: HCT-116
# XF498 = tested on: XF498
# LOX IMVI = tested on: LOX IMVI
# SNB-78 = tested on: SNB-78
# OVCAR-3 = tested on: OVCAR-3
# DLD-1 = tested on: DLD-1
# OVCAR-8 = tested on: OVCAR-8
# UACC-62 = tested on: UACC-62
# U-251 = tested on: U-251
# KM-20L2 = tested on: KM-20L2
# HT-29 = tested on: HT-29
# SK-OV-3 = tested on: SK-OV-3
# RPMI-8226 = tested on: RPMI-8226
# UACC-257 = tested on: UACC-257
# SN12C = tested on: SN12C
# HOP-18 = tested on: HOP-18
# SW-620 = tested on: SW-620
# SK-MEL-2 = tested on: SK-MEL-2
# SK-MEL-5 = tested on: SK-MEL-5
# Malme-3M = tested on: Malme-3M
# CCRF-CEM = tested on: CCRF-CEM
# M19-MEL = tested on: M19-MEL
# LXFL 529 = tested on: LXFL 529
# COLO 205 = tested on: COLO 205
# NCI-H460 = tested on: NCI-H460
# DMS-114 = tested on: DMS-114
# SR = tested on: SR
# CAKI-1 = tested on: CAKI-1
# TK-10 = tested on: TK-10
# HOP-62 = tested on: HOP-62
# RXF 631 = tested on: RXF 631
# NCI-H522 = tested on: NCI-H522
# SF-539 = tested on: SF-539
# KM12 = tested on: KM12
# M14 = tested on: M14
# OVCAR-5 = tested on: OVCAR-5
# RXF 393 = tested on: RXF 393
# DMS-273 = tested on: DMS-273
# OVCAR-4 = tested on: OVCAR-4
# HCT-15 = tested on: HCT-15
# A498 = tested on: A498
smiles,measurement,setting,value
O=C(CC(=O)n1nc(-c2ccccc2)c(/N=N/c2ccc([N+](=O)[O-])cc2)c1-c1ccccc1)Nc1ccc(Cl)cc1,GI50,SNB-19,26.4 µM (inactive)
same,GI50,K562,4.19 µM (inactive)
same,GI50,ACHN,2.07 µM (inactive)
same,GI50,IGROV-1,36.4 µM (inactive)
same,GI50,NCI-H226,22.4 µM (inactive)
same,GI50,NCI-H23,27.2 µM (inactive)
same,GI50,SK-MEL-28,17.9 µM (inactive)
same,GI50,MOLT-4,24.1 µM (inactive)
same,GI50,SNB-75,29 µM (inactive)
same,GI50,SF-268,13.5 µM (inactive)
same,GI50,786-0,34.8 µM (inactive)
same,GI50,HCC 2998,20.8 µM (inactive)
same,GI50,UO-31,11.9 µM (inactive)
same,GI50,SF-295,40.6 µM (inactive)
same,GI50,HOP-92,16.8 µM (inactive)
same,GI50,EKVX,26.7 µM (inactive)
same,GI50,HL-60,17 µM (inactive)
same,GI50,A549,15.9 µM (inactive)
same,GI50,HCT-116,12.9 µM (inactive)
same,GI50,XF498,26.2 µM (inactive)
same,GI50,LOX IMVI,30.2 µM (inactive)
same,GI50,SNB-78,88.5 µM (inactive)
same,GI50,OVCAR-3,16 µM (inactive)
same,GI50,DLD-1,22 µM (inactive)
same,GI50,OVCAR-8,35.8 µM (inactive)
same,GI50,UACC-62,2.56 µM (inactive)
same,GI50,U-251,18.9 µM (inactive)
same,GI50,KM-20L2,3.25 µM (inactive)
same,GI50,HT-29,12.5 µM (inactive)
same,GI50,SK-OV-3,18.8 µM (inactive)
same,GI50,RPMI-8226,30.2 µM (inactive)
same,GI50,UACC-257,34.8 µM (inactive)
same,GI50,SN12C,42.1 µM (inactive)
same,GI50,HOP-18,26.4 µM (inactive)
same,GI50,SW-620,21.6 µM (inactive)
same,GI50,SK-MEL-2,34.8 µM (inactive)
same,GI50,SK-MEL-5,3.23 µM (inactive)
same,GI50,Malme-3M,19 µM (inactive)
same,GI50,CCRF-CEM,15.6 µM (inactive)
same,GI50,M19-MEL,35.6 µM (inactive)
same,GI50,LXFL 529,8.73 µM (inactive)
same,GI50,COLO 205,18 µM (inactive)
same,GI50,NCI-H460,30.1 µM (inactive)
same,GI50,DMS-114,5.92 µM (inactive)
same,GI50,SR,22.4 µM (inactive)
same,GI50,CAKI-1,20 µM (inactive)
same,GI50,TK-10,22.6 µM (inactive)
same,GI50,HOP-62,14.5 µM (inactive)
same,GI50,RXF 631,55.6 µM (inactive)
same,GI50,NCI-H522,23.2 µM (inactive)
same,GI50,SF-539,21.5 µM (inactive)
same,GI50,KM12,12 µM (inactive)
same,GI50,M14,13.5 µM (inactive)
same,GI50,OVCAR-5,26.5 µM (inactive)
same,GI50,RXF 393,19.5 µM (inactive)
same,GI50,DMS-273,19.9 µM (inactive)
same,GI50,OVCAR-4,34.2 µM (inactive)
CCN(CC)c1ccc(/N=N/c2ccc(-c3nc4ccc[n+](C)c4o3)cc2)cc1,GI50,SNB-19,13.3 µM (inactive)
same,GI50,K562,2.4 µM (inactive)
same,GI50,IGROV-1,12.9 µM (inactive)
same,GI50,NCI-H226,11.5 µM (inactive)
same,GI50,NCI-H23,12.8 µM (inactive)
same,GI50,MOLT-4,3.66 µM (inactive)
same,GI50,SNB-75,11.6 µM (inactive)
same,GI50,SF-268,12.6 µM (inactive)
same,GI50,786-0,11.4 µM (inactive)
same,GI50,UO-31,12.7 µM (inactive)
same,GI50,SF-295,14.8 µM (inactive)
same,GI50,HOP-92,15.2 µM (inactive)
same,GI50,EKVX,13.6 µM (inactive)
same,GI50,HL-60,2.06 µM (inactive)
same,GI50,A549,9.77 µM (inactive)
same,GI50,HCT-116,4.18 µM (inactive)
same,GI50,XF498,11.3 µM (inactive)
same,GI50,LOX IMVI,4.3 µM (inactive)
same,GI50,SNB-78,11.4 µM (inactive)
same,GI50,OVCAR-3,10 µM (inactive)
same,GI50,DLD-1,7.33 µM (inactive)
same,GI50,OVCAR-8,5.11 µM (inactive)
same,GI50,UACC-62,9.27 µM (inactive)
same,GI50,U-251,4.57 µM (inactive)
same,GI50,KM-20L2,13 µM (inactive)
same,GI50,HT-29,11.3 µM (inactive)
same,GI50,SK-OV-3,19.5 µM (inactive)
same,GI50,RPMI-8226,2.75 µM (inactive)
same,GI50,UACC-257,7.01 µM (inactive)
same,GI50,SN12C,15.5 µM (inactive)
same,GI50,HOP-18,23.7 µM (inactive)
same,GI50,SW-620,4.76 µM (inactive)
same,GI50,HCT-15,10.3 µM
same,GI50,SK-MEL-2,12 µM (inactive)
same,GI50,SK-MEL-5,2.97 µM (inactive)
same,GI50,Malme-3M,2.31 µM (inactive)
same,GI50,CCRF-CEM,3.27 µM (inactive)
same,GI50,M19-MEL,4.98 µM (inactive)
same,GI50,LXFL 529,3.81 µM (inactive)
same,GI50,COLO 205,2.29 µM (inactive)
same,GI50,A498,15.7 µM (inactive)
same,GI50,NCI-H460,12.6 µM (inactive)
same,GI50,DMS-114,3.7 µM (inactive)
same,GI50,SR,3.69 µM (inactive)
same,GI50,CAKI-1,12.9 µM (inactive)
same,GI50,TK-10,12.3 µM (inactive)
same,GI50,HOP-62,16.3 µM (inactive)
same,GI50,RXF 631,12.7 µM (inactive)
same,GI50,NCI-H522,4.93 µM (inactive)
same,GI50,SF-539,5.46 µM (inactive)
same,GI50,KM12,11.1 µM (inactive)
same,GI50,M14,12.1 µM (inactive)
same,GI50,OVCAR-5,3.54 µM (inactive)
same,GI50,RXF 393,10.7 µM (inactive)
same,GI50,DMS-273,10.5 µM (inactive)
same,GI50,OVCAR-4,12 µM (inactive)
CCOC(=O)c1ccc(/N=C/c2ccc(N(CCC#N)S(=O)(=O)c3ccccc3)cc2C)cc1,GI50,SNB-19,> 100 µM (inactive)
same,GI50,K562,9.79 µM (inactive)
same,GI50,IGROV-1,> 100 µM (inactive)
same,GI50,NCI-H23,> 100 µM (inactive)
same,GI50,SK-MEL-28,61.2 µM (inactive)
same,GI50,MOLT-4,28.6 µM (inactive)
same,GI50,SNB-75,32.4 µM (inactive)
same,GI50,SF-268,26.1 µM (inactive)
same,GI50,786-0,> 100 µM (inactive)
same,GI50,HCC 2998,28.7 µM (inactive)
same,GI50,UO-31,28.3 µM (inactive)
same,GI50,SF-295,26.5 µM (inactive)
same,GI50,EKVX,52.8 µM (inactive)
same,GI50,HL-60,19.4 µM (inactive)
same,GI50,A549,47.1 µM (inactive)
same,GI50,HCT-116,36.9 µM (inactive)
same,GI50,XF498,> 100 µM (inactive)
same,GI50,LOX IMVI,22.8 µM (inactive)
same,GI50,SNB-78,33.2 µM (inactive)
same,GI50,OVCAR-3,54.7 µM (inactive)
same,GI50,DLD-1,25.1 µM (inactive)
same,GI50,OVCAR-8,> 100 µM (inactive)
same,GI50,UACC-62,19.4 µM (inactive)
same,GI50,U-251,97.1 µM (inactive)
same,GI50,KM-20L2,16.4 µM (inactive)
same,GI50,HT-29,37.2 µM (inactive)
same,GI50,SK-OV-3,76.9 µM (inactive)
same,GI50,RPMI-8226,36.2 µM (inactive)
same,GI50,UACC-257,50 µM (inactive)
same,GI50,SN12C,75.7 µM (inactive)
same,GI50,SW-620,76.6 µM (inactive)
same,GI50,HCT-15,6.82 µM
same,GI50,SK-MEL-2,33.5 µM (inactive)
same,GI50,SK-MEL-5,80.7 µM (inactive)
same,GI50,Malme-3M,53.8 µM (inactive)
same,GI50,CCRF-CEM,36.6 µM (inactive)
same,GI50,M19-MEL,36.6 µM (inactive)
same,GI50,LXFL 529,6.01 µM (inactive)
same,GI50,COLO 205,20.4 µM (inactive)
same,GI50,A498,> 100 µM (inactive)
same,GI50,DMS-114,36 µM (inactive)
same,GI50,CAKI-1,39.4 µM (inactive)
same,GI50,TK-10,49.3 µM (inactive)
same,GI50,HOP-62,31 µM (inactive)
same,GI50,RXF 631,> 100 µM (inactive)
same,GI50,NCI-H522,72.1 µM (inactive)
same,GI50,SF-539,41.9 µM (inactive)
same,GI50,KM12,18.7 µM (inactive)
same,GI50,M14,25.4 µM (inactive)
same,GI50,OVCAR-5,31.8 µM (inactive)
same,GI50,DMS-273,65.3 µM (inactive)
same,GI50,OVCAR-4,39.4 µM (inactive)

# Reference: ChEMBL document CHEMBL1201862, “PubChem BioAssay data set” (2004)
